Columns and labels:
[1] = tested on: IL10/Nox1^dKO mice; assay: Salubrinal treatment of spontaneous colitis in IL10/Nox1 dKO mice; format: in vivo
Text: To assess the pathogenic role of goblet cells in UC, WT and Nox1^KO mice were subjected to oral administration of DSS or rectal administration of TNBS. […] IRE1beta and ATF6alpha branch signaling were extended in colonic epithelial cells as evidenced by the increased XBP-1 mRNA splicing, the induction of GRP78, GRP94, PDI at both mRNA and protein levels, and dilated cisternae and gross distortion of the ER in goblet cells. […] Consistent with reduced eIF2α phosphorylation, increased expression of PPP1R15A/GADD34, a stress-inducible protein that recruits the catalytic subunit of protein phosphatase 1 and promotes eIF2alpha dephosphorylation, was detected in agreement with our previous data in humans^1. EIF2alpha phosphorylation is cytoprotective during ERS, because cells are sensitized to cell death when this pathway is genetically ablated^33 and protected when it is ectopically enforced^34. To test whether a selective pharmacological inhibitor of GADD34-mediated eIF2alpha dephosphorylation may alleviate colitis, IL10/Nox1^dKO mice were treated with 1 mg/kg salubrinal^35 for up to three weeks.

[2] = tested on: WT and Nox1^KO mice; assay: Tunicamycin (ERS inducer)-induced colitis in WT and Nox1 KO mice; format: in vivo; conditions: mice overexpressing goblet cells (Nox1^KO) versus WT mice
[3] = IL10/Nox1^dKO mice, 1 mg/kg for up to three weeks
[4] = salubrinal-treated IL10/Nox1^dKO mice

| Compound | immune cell infiltration [1, 3] | mucosal architecture and goblet cells [1, 3] | apoptosis of colonic mucosa ([1]; IL10/Nox1^dKO mice, 1 mg/kg for up to three weeks, at least in part via CHOP expression) | eIF2alpha phosphorylation in colonic mucosa ([1]; IL10/Nox1^dKO mice, 1 mg/kg for up to three weeks, mainly detected in colonic epithelial cells) | Grp78/Bip and Grp94 expression [1, 4] | amount of colonic and splenic Treg cells [1, 4] | levels of proinflammatory cytokines [1, 4] | severity of colitis induced by tunicamycin treatment [2] |
| --- | --- | --- | --- | --- | --- | --- | --- | --- |
| O=C(/C=C/c1ccccc1)NC(NC(=S)Nc1cccc2cccnc12)C(Cl)(Cl)Cl (centres unmarked) [salubrinal] | markedly prevented | restored intact mucosal architecture with normal goblet cells | protected colonic mucosa against apoptosis | caused robust eIF2alpha phosphorylation | trend toward reduced | strongly decreased to baseline | strongly decreased to baseline |  |
| tunicamycin |  |  |  |  |  |  |  | significantly induced a more severe colitis in mice overexpressing goblet cells than in WT mice |

Source: patent publication US9217156B2, “Non human animal model for ulcerative colitis and its main complications” (Institut National de la Sante et de la Recherche Medicale …, priority 2012, dated 2015)
